Data from patent publication US20080280879A1, “SUBSTITUTED HETEROCYCLIC DERIVATIVES AND THEIR PHARMACEUTICAL USE AND COMPOSITIONS” (priority 2007, published 2008).
In brackets after ≈: the same amount, converted by molar mass.

Columns and labels:
Assay type in all cases: cell-based, Staphylococcus aureus
[1] = tested on: Staph aureus 2811; assay: MIC, microtiter broth dilution (CLSI M7-A7), Assay 1, Table 12 column D, no serum; conditions: for MIC: Staphylococcus aureus, 2811, Staph aureus 2811, Assay 1, no serum; for MIC, column D: Staph aureus 2811, Assay 1, no serum
Procedure: (§1) The assays described herein include a panel of bacterial isolates of Staphylococcus aureus. Assay 1 comprises the strains noted in Columns A through E, and Assay 2 comprises the strains noted in Columns F through H. The assays are performed in microtiter trays according to Methods for Dilution Antimicrobial Susceptibility Tests for Bacteria that Grow Aerobically; Approved Standard-7th edition (M7-A7) and interpreted according to the Performance Standards for Antimicrobial Susceptibility Testing; 16th Informational Supplement (M100-S16) published by Clinical Laboratory Standards Institute (CLSI). The antibacterial activity is presented in the form of a minimum inhibitory concentration (MIC) value in μg/ml format. The MIC value represents the lowest concentration of drug measured which prevented macroscopically visible growth under the conditions and specific doses tested. The compounds were initially dissolved in DMSO as 30 mM stocks and diluted accordingly to adjust to a concentration of 10 mg/ml or the compounds were dissolved in DMSO at a concentration of 10 mg/ml. For assessment of activity in the presence of human serum, S. aureus 1146 and S. aureus 1031 were inoculated into Mueller-Hinton Broth with 50% pooled inactivated human serum. In some cases, compounds were tested more than once in a particular assay. Where noted, the MIC value shown in Table 12 represents the geometric mean of the data from multiple runs.
(§2) It should be understood that the data in columns A-H represents MIC data in μg/ml and the notation “<=” means ‘less than or equal to’.

[2] = tested on: Staph aureus 1146; assay: MIC, microtiter broth dilution (CLSI M7-A7), Assay 1, Table 12 column B, no serum; conditions: for MIC, column B: Staph aureus 1146, Assay 1, no serum; for MIC: Staphylococcus aureus, 1146, Staph aureus 1146, Assay 1, no serum
Procedure: as §1, §2

[3] = tested on: Staph aureus 1146; assay: MIC in Mueller-Hinton Broth with 50% pooled inactivated human serum, Assay 1, Table 12; conditions: for MIC, column C: Staph aureus 1146, Assay 1, 50% human serum; for MIC: Staphylococcus aureus, 1146, Staph aureus 1146, Assay 1, 50% human serum, read-out: MIC, column C
Procedure: as §1, §2

[4] = tested on: Staph aureus 2812; assay: MIC, microtiter broth dilution (CLSI M7-A7), Assay 1, Table 12 column E, no serum; conditions: for MIC, column E: Staph aureus 2812, Assay 1, no serum; for MIC: Staphylococcus aureus, 2812, Staph aureus 2812, Assay 1, no serum
Procedure: as §1, §2

[5] = tested on: Staph aureus 1095 MRSA; assay: MIC, microtiter broth dilution (CLSI M7-A7), Assay 1, Table 12 column A, no serum; conditions: Assay 1, no serum; for MIC: Staphylococcus aureus, MRSA
Procedure: as §1, §2

SMILES | MIC [1] [µg/mL] | MIC, column B [2] | MIC, column C [3] [µg/mL] | MIC, column E [4] | MIC [5] [µg/mL] | MIC [2] [µg/mL] | MIC [3] [µg/mL] | MIC [4] [µg/mL] | MIC, column D [1] | MIC, column A [5] [µg/mL]
COc1ccc2ncc(F)c(C(O)CC[C@@H]3CCN(C4CC(c5ccccc5)C4)C[C@@H]3C(=O)O)c2c1 (single isomer, unassigned) [Example 15] | 0.0625 (≈ 0.127 µM) | 0.0156 µg/mL (≈ 0.0317 µM) | 0.25 (≈ 0.508 µM) | 0.03125 µg/mL (≈ 0.0634 µM) | 0.0884 (≈ 0.179 µM) |  |  |  |  | 
COc1ccc2nccc(C(O)CC[C@@H]3CCN(C4CC(c5nc(C(C)C)no5)C4)C[C@@H]3C(=O)O)c2c1 (stereo partly drawn) [Example 166, (3R,4R)-4-[3-hydroxy-3-(6-methoxyquinolin-4-yl)propyl]-1-[3-(3-isopropyl-1,2,4-oxadiazol-5-yl)cyclobutyl]piperidine-3-carboxylic acid] | > 64 |  |  |  | > 64 | > 64 | > 64 | > 64 |  | 
COc1ccc2nccc([C@@H](O)CC[C@@H]3CCN(C4CC(c5c(F)cccc5F)C4C)C[C@@H]3C(=O)O)c2c1 (stereo partly drawn) [Example 67, (3R,4R)-1-[(2,3)-3-(2,6-difluorophenyl)-2-methylcyclobutyl]-4-[(3S)-3-hydroxy-3-(6-methoxyquinolin-4-yl)propyl]piperidine-3-carboxylic acid] |  | <=.0625 μg/ml | 2 (≈ 3.81 µM) | 0.125 µg/mL (≈ 0.238 µM) |  |  |  |  | <=.0625 μg/ml | 0.125 (≈ 0.238 µM)
COc1ccc2nccc(C(O)CC[C@@H]3CCN(C4CC(CC5CCCC5)C4)C[C@@H]3C(=O)O)c2c1 (stereo partly shown) [Example 49] |  | <=.0625 μg/ml | 0.25 (≈ 0.52 µM) | <=.0625 μg/ml |  |  |  |  | <=.0625 μg/ml | 0.125 (≈ 0.26 µM)
COc1ccc2nccc([C@@H](O)CC[C@@H]3CCN(C4CC(C5CCCC5)C4)C[C@@H]3C(=O)O)c2c1 (stereo partly drawn) [Example 47, (3R,4R)-1-(3-cyclopentylcyclobutyl)-4-[(3S)-3-hydroxy-3-(6-methoxyquinolin-4-yl)propyl]piperidine-3-carboxylic acid] | ≤ 0.0625 |  |  |  | 0.125 (≈ 0.268 µM) | ≤ 0.0625 | 0.5 (≈ 1.07 µM) | 0.125 (≈ 0.268 µM) |  | 
COc1ccc2ncc(Cl)c(CCCC3(C(=O)O)CCN(C4CCC(c5cc(F)ccc5F)C4)C3)c2c1 (stereo not shown) [Example 199, 3-[3-(3-chloro-6-methoxyquinolin-4-yl)propyl]-1-[3-(2,5-difluorophenyl)cyclopentyl]pyrrolidine-3-carboxylic acid] | < 0.0625 |  |  |  | 0.125 (≈ 0.236 µM) | < 0.0625 | > 64 | < 0.0625 |  | 
COC(=O)[C@H]1CN(C2CC(c3nnc(C)o3)C2)CC[C@H]1CCC(O)c1ccnc2ccc(OC)cc12 (stereo partly drawn) [Example 99, methyl (3R,4R)-4-[3-hydroxy-3-(6-methoxyquinolin-4-yl)propyl]-1-[3-(5-methyl-1,3,4-oxadiazol-2-yl)cyclobutyl]piperidine-3-carboxylate] | 64 (≈ 129 µM) |  |  |  | 64 (≈ 129 µM) | 16 (≈ 32.3 µM) | > 64 | > 64 |  | 
COc1ccc2ncc(Cl)c(CCNC3(C(=O)O)CCCN(C4CC(c5c(F)cccc5F)C4)CC3)c2c1 (stereo not shown) [Example 154, 4-{[2-(3-chloro-6-methoxyquinolin-4-yl)ethyl]amino}-1-[3-(2,6-difluorophenyl)cyclobutyl]azepane-4-carboxylic acid] | 0.0625 (≈ 0.115 µM) |  |  |  | 0.25 (≈ 0.46 µM) | 0.0625 (≈ 0.115 µM) | 4 (≈ 7.35 µM) | 0.0625 (≈ 0.115 µM) |  | 
COc1ccc2ncc(F)c(C(O)CC[C@@H]3CCN(C4CC(c5cc(F)ccc5F)C4)C[C@@H]3C(=O)O)c2c1 (stereo partly drawn) [Example 39, (3R,4R)-1-[3-(2,5-difluorophenyl)cyclobutyl]-4-[3-(3-fluoro-6-methoxyquinolin-4-yl)-3-hydroxypropyl]piperidine-3-carboxylic acid] | 0.25 (≈ 0.473 µM) |  |  |  | ≤ 0.125 | ≤ 0.0625 | 1 (≈ 1.89 µM) | ≤ 0.0625 |  | 
COc1ccc2nccc([C@@H](O)CC[C@@H]3CCN(C4CC(c5c(F)cccc5F)C4(C)C)C[C@@H]3C(=O)O)c2c1 (stereo partly drawn) [Example 200, (3R,4R)-1-[3-(2,6-difluorophenyl)-2,2-dimethylcyclobutyl]-4-[(3S)-3-hydroxy-3-(6-methoxyquinolin-4-yl)propyl]piperidine-3-carboxylic acid] | 8 (≈ 14.9 µM) |  |  |  | 32 (≈ 59.4 µM) | 8 (≈ 14.9 µM) | > 64 | 8 (≈ 14.9 µM) |  | 
COc1ccc2nccc(C(O)CC[C@@H]3CCN(C4CC(c5cc(C)no5)C4)C[C@@H]3C(=O)O)c2c1 (stereo partly drawn) [Example 115, (3R,4R)-4-[3-hydroxy-3-(6-methoxyquinolin-4-yl)propyl]-1-[3-(3-methylisoxazol-5-yl)cyclobutyl]piperidine-3-carboxylic acid] | 8 (≈ 16.7 µM) |  |  |  | 32 (≈ 66.7 µM) | 8 (≈ 16.7 µM) | 64 (≈ 133 µM) | 16 (≈ 33.4 µM) |  | 
COc1ccc2ncc(F)c(C(O)COC3(C(=O)O)CCN(C4CC(c5ccccc5)C4)CC3)c2c1 (stereo not shown) [Example 146, 4-(2-(3-fluoro-6-methoxyquinolin-4-yl)-2-hydroxyethoxy)-1-(3-phenylcyclobutyl)piperidine-4-carboxylic acid] | 32 (≈ 64.7 µM) |  |  |  | 32 (≈ 64.7 µM) | 16 (≈ 32.4 µM) | > 64 | 32 (≈ 64.7 µM) |  | 
COc1ccc2nccc(C(O)CC[C@@H]3CCN(C4CC(C5CCCCC5)C4)C[C@@H]3C(=O)O)c2c1 (stereo partly drawn) [Example 44, (3R,4R)-1-(3-cyclohexylcyclobutyl)-4-[3-hydroxy-3-(6-methoxyquinolin-4-yl)propyl]piperidine-3-carboxylic acid] | 0.125 (≈ 0.26 µM) |  |  |  | 0.5 (≈ 1.04 µM) | 0.25 (≈ 0.52 µM) | 2 (≈ 4.16 µM) | 0.125 (≈ 0.26 µM) |  | 
CCOCCc1noc(C2CC(N3CC[C@@H](CCC(O)c4ccnc5ccc(OC)cc45)[C@@H](C(=O)O)C3)C2)n1 (stereo partly drawn) [Example 168, (3R,4R)-1-{3-[3-(2-ethoxyethyl)-1,2,4-oxadiazol-5-yl]cyclobutyl}-4-[3-hydroxy-3-(6-methoxyquinolin-4-yl)propyl]piperidine-3-carboxylic acid] | > 64 |  |  |  | > 64 | > 64 | > 64 | > 64 |  | 
COc1ccc2nccc(C(O)CC[C@@H]3CCN(C4CCC(c5cc(F)ccc5F)C4)C[C@@H]3C(=O)O)c2c1 (stereo partly drawn) [Example 183, (3R,4R)-1-[3-(2,5-difluorophenyl)cyclopentyl]-4-[3-hydroxy-3-(6-methoxyquinolin-4-yl)propyl]piperidine-3-carboxylic acid] | 0.25 (≈ 0.477 µM) |  |  |  | 2 (≈ 3.81 µM) | 0.25 (≈ 0.477 µM) | 8 (≈ 15.2 µM) | 0.5 (≈ 0.953 µM) |  | 
COc1ccc2nccc(C(O)CC[C@@H]3CCN(C4CN(C5CCCCC5)C4)C[C@@H]3C(=O)O)c2c1 (stereo partly drawn) [Example 131, (3R,4R)-1-(1-cyclohexylazetidin-3-yl)-4-[3-hydroxy-3-(6-methoxyquinolin-4-yl)propyl]piperidine-3-carboxylic acid] | > 64 |  |  |  | > 64 | > 64 | > 64 | > 64 |  | 
COc1ccc2nccc(CCCC3(C(=O)O)CCN(CC4CC4c4ccccc4)CC3)c2c1 (stereo not shown) [Example 107, 4-[3-(6-methoxyquinolin-4-yl)propyl]-1-{[(1,2)-2-phenylcyclopropyl]methyl}piperidine-4-carboxylic acid] |  | 64 µg/mL (≈ 140 µM) | >64 | 16 µg/mL (≈ 34.9 µM) |  |  |  |  | 64 µg/mL (≈ 140 µM) | 64 (≈ 140 µM)
COc1ccc2ncc(Cl)c(CCCC3(C(=O)O)CCN(C4CC(c5ccccc5)C4)CC3)c2c1 (stereo not shown) [Example 108, 4-[3-(3-chloro-6-methoxyquinolin-4-yl)propyl]-1-(3-phenylcyclobutyl)piperidine-4-carboxylic acid] | ≤ 0.0625 |  |  |  | ≤ 0.0625 | ≤ 0.0625 | 64 (≈ 130 µM) | ≤ 0.0625 |  | 
COc1ccc2nccc([C@H](O)CC[C@@H]3CCN(C4CC(c5cccc(F)c5)C4)C[C@@H]3C(=O)O)c2c1 (stereo partly drawn) [Example 91, (3R,4R)-1-[3-(3-fluorophenyl)cyclobutyl]-4-[(3R)-3-hydroxy-3-(6-methoxyquinolin-4-yl)propyl]piperidine-3-carboxylic acid] | 0.25 (≈ 0.508 µM) |  |  |  | 0.5 (≈ 1.02 µM) | 0.25 (≈ 0.508 µM) | 8 (≈ 16.2 µM) | 0.25 (≈ 0.508 µM) |  | 
COc1ccc2nccc(C(=O)CC[C@@H]3CCN(C4CC(c5ccccc5)C4)C[C@@H]3C(=O)O)c2c1 (stereo partly drawn) [Example 135, (3R,4R)-4-[3-(6-Methoxy-quinolin-4-yl)-3-oxo-propyl]-1-(3-phenyl-cyclobutyl)-piperidine-3-carboxylic acid] | 0.125 (≈ 0.265 µM) |  |  |  | 0.25 (≈ 0.529 µM) | 0.25 (≈ 0.529 µM) | 8 (≈ 16.9 µM) | 0.25 (≈ 0.529 µM) |  | 
